pIC50: −log10 of the molar value. Where “and” joins values, the source holds several entries; their conditions need not be identical. Identical values can stand only once.
How the values were obtained:
[1] = system: P. falciparum stage III–IV gametocytes; assay: P. falciparum gametocyte viability assay (MitoTracker, flow cytometry), stage III-IV; type: cell-based, Plasmodium falciparum; settings: Plasmodium falciparum, 48 h
Procedure: Gametocyte assays commenced seven days (stage III–IV) or ten days (stage V) post-invasion. […]
Plasmodium falciparum Gametocyte Viability Assays:
Asexual P. falciparum parasites were induced to form gametocytes as described (21).
Synchronized trophozoite-stage parasites at 2% parasitaemia were incubated overnight and […]
haematocrit maintained at 4%. On the subsequent day (designated as day 0) of gametocytogenesis, the culture containing early ring-stage parasites was first purified by sorbitol synchronisation to remove asynchronous trophozoites, and passed through a magnetic field in a sterile MACS® column in a SuperMACSTM II magnet to remove remaining late-stage parasites or later-stage gametocytes (negative selection). The culture medium was supplemented with 50 mM N-acetyl-D-glucosamine to inhibit asexual parasite proliferation, and changed daily. Sorbitol treatment was performed on Day 1, 5, and 6 to further remove asexual parasites. Gametocytes were magnetically enriched (positive selection) in a sterile column with a SuperMACSTM II magnet and eluted in culture media with 50 mM N-acetyl-D-glucosamine. These gametocytes were incubated overnight at 37 °C under microaerophilic conditions, and purity was assessed by examination under a light microscope (400× […]
Gametocyte viability was assessed as described by Ridgway et al. (21) with modifications.
Compounds or solvent controls (DMSO) were serially diluted across 96-well plates in culture media supplemented with 50 mM N-acetyl-D-glucosamine. Culture media without compound was used as a negative control. […]
control to determine background gametocyte fluorescence. Stage III-IV gametocytes (Day 7) or stage V (day 10) gametocytes were concentrated and added to the plate with 200 µL per well. The plate was incubated for 48 hours at 37 °C under humid microaerophilic conditions.
Parasites were then stained with 500 nM MitoTrackerTM Deep Red FM and 5 μg/ml Hoechst […]
cytometer as described above. […]
excluded. Live (positive) and dead (negative) gametocytes were differentiated by […]
percentage of each was calculated. […]

P. berghei liver stages = assay: Plasmodium berghei liver stage growth inhibition assay (luminescence, in Huh7 cells); settings: for P. berghei liver stage growth, dose-response data points (Figure 3A): replicate data points; for P. berghei liver stage growth, dose-response data points (Figure 3A) / Figure 3E dose-response value (replicates): listed as HJB8a53
Procedure: Growth inhibition or cell viability were assessed by incubation with a serial dilution of test compounds, solvent controls (DMSO, ethanol, ethyl acetate), or culture media alone in 96-well plates, with detection of fluorescence, luminescence, or absorbance in microplate readers after 24–96 h unless otherwise specified.
Huh7 cells were seeded at a density of 10,000 cells per well of a 96-well plate, or 20,000 cells per collagen-coated coverslip. After 24 h, test compounds were added the wells were inoculated with P. berghei liver stage sporozoites dissected from infected A. stephensi salivary glands with 5000–10,000 sporozoites per well or 10,000–20,000 sporozoites per coverslip. Uninfected wells served as a control for background luminescence. Luminescence signal was measured 48 h post-invasion by addition of 1:1 ONE-Glo^TM substrate (Promega) with a luminescence microplate reader. Coverslips were fixed, stained, and imaged, with all parasites on each coverslip imaged and delineated as described (Petersen et al, [2017]) using Fiji ImageJ (Schindelin et al, [2012]). Data are presented as a percentage of the size or parasite number of the solvent control to normalize for differences between experiments.
Growth inhibition data were normalised by subtracting background fluorescence, luminescence, absorbance, or percentage of cells from a no-growth or no-viability control (high drug concentration, no-parasite control, or time = 0 measurement as specified), and expressed as a percentage of the growth or cell percentage in the negative control (culture media alone or solvent control) at the indicated timepoint (or to the highest measurement reached during the assay for Fig. EV3).
Plasmodium berghei ANKA Bergreen (22) or GFP-Luc (RMgm-29) (23), respectively
expressing green fluorescent protein (GFP) or a GFP-Luciferase fusion protein, were
maintained under routine conditions in SWR/J Mus musculus mice and Anopheles stephensi
Growth inhibition of P. berghei liver-stages was investigated after infection of human
hepatoma cells (Huh7) and subsequent growth for 48 hours at 37° C, 5% CO2 and 80%
humidity. The day prior to infection, 10,000 Huh7 cells were seeded in dark-sided 96-well
microplates (Greiner Bio One). On the day of infection, compounds or solvent controls
(DMSO) were serially diluted in culture media and 5,000 – 10,000 Bergreen or GFP-Luc
sporozoites were added per well following dissection from infected A. stephensi salivary
glands. Uninfected wells served as control for background luminescence. To promote invasion,
the plates were centrifuged at 1,550 g for 5 minutes. After 60 minutes, the media was
completely replaced with fresh, prewarmed media with the matching drug concentrations.
Media was partially replaced with new drug dilutions over the following two days. 48 hours
post-infection, luminescence signal was measured by addition of 1:1 ONE-GloTM substrate
(Promega) to the wells, followed by detection at 300 – 700 nm using a Synergy HTX plate

With `CC(C)OC(=O)CCC(=O)O[C@H]1CC[C@H]2[C@@H]3CC=C4C[C@@H](O)CC[C@]4(C)[C@H]3CC[C@]12C` [C-17-link] the viability at 1.5625 µM ([1]; read-out: Gametocyte stage III-IV viability, percentage of control, 1.562500000 uM, 48 h, replicate values, source data Fig. 2C) was 94.6%, the viability at 3.125 µM ([1]; read-out: Gametocyte stage III-IV viability, percentage of control, 3.125000000 uM, 48 h, replicate values, source data Fig. 2C) was 94.6% and the viability at 6.25 µM ([1]; read-out: Gametocyte stage III-IV viability, percentage of control, 6.250000000 uM, 48 h, replicate values, source data Fig. 2C) was 98.6%. For the same compound, the viability at 12.5 µM ([1]; read-out: Gametocyte stage III-IV viability, percentage of control, 12.500000000 uM, 48 h, replicate values, source data Fig. 2C) was 99.8%, the viability at 25 µM ([1]; read-out: Gametocyte stage III-IV viability, percentage of control, 25.000000000 uM, 48 h, replicate values, source data Fig. 2C) was 92.6% and the pIC50 ([1]; read-out: IC50, P. falciparum gametocyte stage III-IV inhibition, 48 h) was under 4.00. For the same compound, the “P. berghei liver stage growth, dose-response data points (Figure 3A)” value (“P. berghei liver stage growth” below) (P. berghei liver stages; 0.015241580 uM) was 96.98 and 119.7 and 83.36 and 88.47 and 108.4 and 103.1 and 97.22 and 85.28 and 117.5, the “P. berghei liver stage growth” value (P. berghei liver stages; 0.045724740 uM) was 121.9 and 106 and 104.9 and 85.8 and 115.6 and 102.5 and 72.1 and 100.2 and 87.82 and the “P. berghei liver stage growth” value (P. berghei liver stages; 0.137174210 uM) was 107.2 and 102.6 and 90.17 and 92.54 and 104.7 and 117.6 and 63.06 and 70.96 and 103.2. The “Figure 3E dose-response value (replicates)” value (shortened to “Figure 3E dose-response value”) (P. berghei liver stages; 0.292968750 uM) was 91.07 and 89.1 and 95.27 and 90.14, the “P. berghei liver stage growth” value (P. berghei liver stages; 0.411522630 uM) was 124.2 and 100.4 and 115.1 and 111.4 and 113.3 and 113.5 and 80.27 and 84.75 and 95.46 and the “Figure 3E dose-response value” value (P. berghei liver stages; 0.585937500 uM) was 99.86 and 89.88 and 84.85 and 85.63 and 89.93 and 92.67 and 90.44 and 102.5 and 92 and 98.72 and 111.5 and 102.9. The “Figure 3E dose-response value” value (P. berghei liver stages; 1.171875000 uM) was 96.5 and 101.8 and 91.15 and 89.59 and 89.72 and 89.39 and 88.5 and 90.85 and 89.8 and 102.1 and 102.3 and 93.29, the “P. berghei liver stage growth” value (P. berghei liver stages; 1.234567900 uM) was 118.5 and 135.5 and 116.3 and 100.4 and 96.61 and 100.7 and 64.72 and 81.15 and 106.8 and the “Figure 3E dose-response value” value (P. berghei liver stages; 2.343750000 uM) was 99.05 and 88.35 and 98.38 and 79.46 and 78.82 and 91.42 and 85.51 and 85.36 and 86.3 and 87.79 and 95.63 and 94.28. The “P. berghei liver stage growth” value (P. berghei liver stages; 3.703703700 uM) was 114 and 106 (2×) and 125.3 and 90.63 and 118.1 and 93.53 and 101.3 and 118.6, the “Figure 3E dose-response value” value (P. berghei liver stages; 4.687500000 uM) was 81 and 89.1 and 99.07 and 91.89 and 81.35 and 88.41 and 75.07 and 84.23 and 79.29 and 90.54 and 102.2 and 92.05 and the “Figure 3E dose-response value” value (P. berghei liver stages; 9.375000000 uM) was 89.91 and 74.54 and 79.38 and 86.26 and 88.67 and 93.48 and 71.57 and 72.81 and 73.33 and 83.01 and 90.9 and 81.08. For the same compound, the “P. berghei liver stage growth” value (P. berghei liver stages; 11.111111100 uM) was 92.44 and 108.3 and 77.69 and 72.06 and 110.1 and 86.05 and 62.44 and 84.4 and 99.5, the “Figure 3E dose-response value” value (P. berghei liver stages; 18.750000000 uM) was 68.62 and 75.11 and 71.21 and 83.74 and 80.37 and 86.75 and 49.64 and 47.74 and 45.02 and 68.49 and 77.9 and 71.84 and the “P. berghei liver stage growth” value (P. berghei liver stages; 33.333333300 uM) was 25.52 and 39.13 and 33.46 and 43.83 and 48.03 and 60.49 and 20.73 and 60.95 and 57.96. For the same compound, the “Figure 3E dose-response value” value (P. berghei liver stages; 37.500000000 uM) was 25.13 and 30.9 and 15.88 and 48.26 and 43.84 and 49.75 and 11.26 and 13.01 and 10.8 and 38.05 and 39.89 and 41.67, the “Figure 3E dose-response value” value (P. berghei liver stages; 75.000000000 uM) was 2.196 and 1.744 and 3.137 and 1.33 and 2.981 and 3.396 and -0.3545 and -0.4946 and 0.272 and 5.931 and 5.012 and 6.082 and the “P. berghei liver stage growth” value (P. berghei liver stages; 100.000000000 uM) was -0.5671 and 0.5671 and -2.836 and -0.2967 and -0.1696 and 0.5935 and 0.3513 and 0.08782 and 0.4391. The pIC50 (P. berghei liver stages; Plasmodium berghei, Huh-7, 48 h, read-out: IC50, P. berghei liver stage growth inhibition) was 4.53.
